Columns and labels:
Type in all cases: in vivo
[1] = test system: PGE2 secreted by synoviocyte; assay: Content of PGE2 in culture supernatant of synoviocyte of RA model rats given test compound; details: rat RA model, dose 30 mg/kg.2d, normal control 8.34 ± 1.29, NaCl 32.44 ± 10.32
From the text: (§1) Take Compound 1-50 prepared as per the method according to the present invention and employ the method provided in Reference to prepare model, group drugs and prepare culture supernatant of rat synoviocyte.
(§2) Employ the method provided in Reference to investigate the effects of the test compounds on the synoviocyte to secrete TNF-α and PGE2. Employ the method provided in Reference to investigate the effects of the test compounds on the synoviocyte to secrete IL-1β.
(§3) The experimental data of the test compound 1-50 at a dose of 30 mg/kg.2d as well as the normal control and NaCl group are as follows: […]

[2] = test system: TNF-α secreted by synoviocyte; assay: Content of TNF-α in culture supernatant of synoviocyte of RA model rats given test compound; details: rat RA model, dose 30 mg/kg.2d, normal control 0.38 ± 0.027, NaCl 0.74 ± 0.098
From the text: as §1, §2, §3

[3] = test system: IL-1β secreted by synoviocyte; assay: Content of IL-1β in culture supernatant of synoviocyte of RA model rats given test compound; details: rat RA model, dose 30 mg/kg.2d, normal control 0.16 ± 0.034, NaCl 0.49 ± 0.136
From the text: as §1, §2, §3

Row | SMILES | Content of PGE2 in culture supernatant of synoviocyte (x ± s) [1] [ng/mL] | Content of TNF-α in culture supernatant of synoviocyte (x ± s) [2] [ng/mL] | Content of IL-1β in culture supernatant of synoviocyte (x ± s) [3] [ng/mL] | Content of PGE2 in culture supernatant of synoviocyte (x ± s) ([1]; 30 mg/kg) [ng/mL] | Content of TNF-α in culture supernatant of synoviocyte (x ± s) ([2]; 30 mg/kg) [ng/mL] | Content of IL-1β in culture supernatant of synoviocyte (x ± s) ([3]; 30 mg/kg) [ng/mL]
1 | C=C1C(=O)OC2C1CCC(C)=C1CCC(C)(OC(=O)CCc3ccccc3)C12 (stereo not drawn) [Compound 20] | 27.38 ± 1.39 | 0.58 ± 0.045 | 0.34 ± 0.056 |  |  | 
2 | CC(O)c1cn(C[C@@H]2C(=O)O[C@H]3[C@H]2CCC2(CC2)[C@@H]2CCC4(CC4)[C@H]32)nn1 (stereo partly drawn) [Compound 45] | 23.26 ± 3.49 | 0.49 ± 0.056 | 0.38 ± 0.039 |  |  | 
3 | O=C1O[C@H]2[C@@H](CCC3(CC3)[C@@H]3CCC4(CC4)[C@H]23)[C@@H]1CN1CCCC1 [Compound 39] | 28.35 ± 2.15 | 0.52 ± 0.056 | 0.34 ± 0.095 |  |  | 
4 | O=C1O[C@H]2[C@@H](CCC3(CC3)[C@@H]3CCC4(CC4)[C@H]23)[C@@H]1CN1CCOCC1 [Compound 38] | 19.67 ± 3.14 | 0.67 ± 0.045 | 0.35 ± 0.062 |  |  | 
5 | O=C1O[C@H]2[C@@H](CCC3(CC3)[C@@H]3CCC4(CC4)[C@H]23)[C@@H]1CSc1ccccc1 [Compound 31] | 24.41 ± 1.65 | 0.62 ± 0.056 | 0.39 ± 0.051 |  |  | 
6 | C=C1C(=O)OC2C1CCC(C)=C1CCC(C)(OC(=O)CC(C)C)C12 (stereo not drawn) [Compound 7] | 22.82 ± 2.67 | 0.56 ± 0.044 | 0.39 ± 0.058 |  |  | 
7 | COC[C@@H]1C(=O)O[C@H]2[C@H]1CCC1(CC1)[C@@H]1CCC3(CC3)[C@H]21 [Compound 30] | 25.37 ± 4.21 | 0.65 ± 0.057 | 0.38 ± 0.049 |  |  | 
8 | CCCCN(C)C[C@@H]1C(=O)O[C@H]2[C@H]1CCC1(CC1)[C@@H]1CCC3(CC3)[C@H]21 [Compound 41] | 26.63 ± 1.59 | 0.45 ± 0.056 | 0.41 ± 0.054 |  |  | 
9 | C=C1C(=O)OC2C1CCC(C)=C1CCC(C)(OC(=O)C=CC)C12 (stereo not drawn) [Compound 15] | 24.39 ± 2.38 | 0.54 ± 0.045 | 0.41 ± 0.051 |  |  | 
10 | O=C1O[C@H]2[C@@H](CCC3(CC3)[C@@H]3CCC4(CC4)[C@H]23)[C@@H]1Cn1cc(CCCCO)nn1 [Compound 42] | 22.58 ± 4.21 | 0.58 ± 0.055 | 0.36 ± 0.059 |  |  | 
11 | CC1=C2CC[C@@](C)(O)[C@@H]2[C@H]2OC(=O)[C@@H](CN(C)C)[C@@H]2CC1 [Compound 22] |  |  |  | 24.69 ± 4.19 | 0.61 ± 0.082 | 0.34 ± 0.038
12 | O=C1O[C@H]2[C@@H](CCC3(CC3)[C@@H]3CCC4(CC4)[C@H]23)[C@@H]1CNCc1ccccc1 [Compound 33] | 26.64 ± 2.67 | 0.63 ± 0.054 | 0.41 ± 0.052 |  |  | 
13 | C=C1C(=O)OC2C1CCC(C)=C1CCC(C)(OC(=O)CCCCBr)C12 (stereo not drawn) [Compound 12] | 24.59 ± 2.35 | 0.66 ± 0.043 | 0.38 ± 0.069 |  |  | 
14 | CC1CCN(C[C@@H]2C(=O)O[C@@H]3C4C(CCC45CC5)C4(CC[C@@H]23)CC4)CC1 (stereo partly drawn) [Compound 36] | 25.64 ± 2.14 | 0.66 ± 0.045 | 0.29 ± 0.064 |  |  | 
15 | C=C1C(=O)OC2C1CCC(C)=C1CCC(C)(OC(=O)C=Cc3ccccc3)C12 (stereo not drawn) [Compound 17] | 28.95 ± 3.24 | 0.66 ± 0.077 | 0.37 ± 0.065 |  |  | 
16 | C=C1C(=O)OC2C1CCC(C)=C1CCC(C)(OC(=O)CCC)C12 (stereo not drawn) [Compound 4] | 24.49 ± 2.67 | 0.56 ± 0.064 | 0.42 ± 0.064 |  |  | 
17 | C#CCCCC(=O)O[C@]1(C)CCC2=C(C)CC[C@H]3C(=C)C(=O)O[C@@H]3[C@H]21 [Compound 19] | 26.45 ± 5.21 | 0.62 ± 0.056 | 0.42 ± 0.091 |  |  | 
18 | COC(=O)c1cn(C[C@@H]2C(=O)O[C@H]3[C@H]2CCC2(CC2)[C@@H]2CCC4(CC4)[C@H]32)nn1 [Compound 44] | 22.14 ± 2.87 | 0.54 ± 0.071 | 0.35 ± 0.069 |  |  | 
19 | CN(CCO)C[C@@H]1C(=O)O[C@H]2[C@H]1CCC1(CC1)[C@@H]1CCC3(CC3)[C@H]21 [Compound 40] | 25.34 ± 3.57 | 0.48 ± 0.078 | 0.31 ± 0.061 |  |  | 
20 | CN1CCN(CC2C(=O)O[C@@H]3[C@@H]4[C@@H](CCC45CC5)C4(CC[C@@H]23)CC4)CC1 (stereo partly drawn) [Compound 37] | 27.94 ± 2.69 | 0.59 ± 0.035 | 0.31 ± 0.037 |  |  | 
21 | O=C1O[C@H]2[C@@H](CCC3(CC3)[C@@H]3CCC4(CC4)[C@H]23)[C@@H]1Cn1cc(-c2ccccc2)nn1 [Compound 43] | 24.64 ± 3.95 | 0.55 ± 0.045 | 0.43 ± 0.062 |  |  | 
22 | C=C1C(=O)OC2C1CCC(C)=C1CCC(C)(OC(=O)C=C(C)C)C12 (stereo not drawn) [Compound 16] | 27.61 ± 4.21 | 0.57 ± 0.073 | 0.34 ± 0.039 |  |  | 
23 | C=C1C(=O)OC2C1CCC(C)=C1CCC(C)(OC(=O)C(Cl)Cl)C12 (stereo not drawn) [Compound 10] | 25.67 ± 7.12 | 0.54 ± 0.055 | 0.42 ± 0.069 |  |  | 
24 | O=C1O[C@H]2[C@@H](CCC3(CC3)[C@@H]3CCC4(CC4)[C@H]23)[C@@H]1CNCCO [Compound 34] | 24.61 ± 3.24 | 0.54 ± 0.067 | 0.35 ± 0.059 |  |  | 
25 | O=C1O[C@H]2[C@@H](CCC3(CC3)[C@@H]3CCC4(CC4)[C@H]23)[C@@H]1CSCc1ccccc1 [Compound 32] | 22.75 ± 4.25 | 0.64 ± 0.044 | 0.37 ± 0.047 |  |  | 
26 | C=CCCC(=O)OC1(C)CCC2=C(C)CCC3C(=C)C(=O)OC3C21 (stereo not drawn) [Compound 18] | 20.62 ± 2.47 | 0.64 ± 0.072 | 0.39 ± 0.029 |  |  | 
27 | C=C1C(=O)OC2C1CCC(C)=C1CCC(C)(OC(=O)CCl)C12 (stereo not drawn) [Compound 9] | 27.92 ± 2.67 | 0.61 ± 0.065 | 0.45 ± 0.064 |  |  | 
28 | C=C1C(=O)OC2C1CCC(C)=C1CCC(C)(OC(=O)C(C)C)C12 (stereo not drawn) [Compound 6] | 26.75 ± 1.69 | 0.61 ± 0.072 | 0.36 ± 0.054 |  |  | 
29 | C=C1C(=O)OC2C1CCC(C)=C1CCC(C)(OC(=O)CC)C12 (stereo not drawn) [Compound 3] | 26.96 ± 1.59 | 0.55 ± 0.042 | 0.36 ± 0.039 |  |  | 
